Paper PMC10671360, “In Silico and In Vitro Study towards the Rational Design of 4,4′-Disarylbisthiazoles as a Selective α-Synucleinopathy Biomarker” (International Journal of Molecular Sciences, 2023)
“Also recorded” adds a separate entry of the source.

Tests used:
[1] = molecular target: α-syn (Homo sapiens, UniProt P37840); set-up: method as in PMID 12657667, PMID 32098280, PMID 18221373; details: [^3H]PiB; cited from earlier work
[2] = molecular target: tau (Homo sapiens, UniProt P10636); set-up: method as in PMID 12657667, PMID 32098280, PMID 18221373; details: [^3H]PiB; cited from earlier work
tau, sequence (P10636 2-758): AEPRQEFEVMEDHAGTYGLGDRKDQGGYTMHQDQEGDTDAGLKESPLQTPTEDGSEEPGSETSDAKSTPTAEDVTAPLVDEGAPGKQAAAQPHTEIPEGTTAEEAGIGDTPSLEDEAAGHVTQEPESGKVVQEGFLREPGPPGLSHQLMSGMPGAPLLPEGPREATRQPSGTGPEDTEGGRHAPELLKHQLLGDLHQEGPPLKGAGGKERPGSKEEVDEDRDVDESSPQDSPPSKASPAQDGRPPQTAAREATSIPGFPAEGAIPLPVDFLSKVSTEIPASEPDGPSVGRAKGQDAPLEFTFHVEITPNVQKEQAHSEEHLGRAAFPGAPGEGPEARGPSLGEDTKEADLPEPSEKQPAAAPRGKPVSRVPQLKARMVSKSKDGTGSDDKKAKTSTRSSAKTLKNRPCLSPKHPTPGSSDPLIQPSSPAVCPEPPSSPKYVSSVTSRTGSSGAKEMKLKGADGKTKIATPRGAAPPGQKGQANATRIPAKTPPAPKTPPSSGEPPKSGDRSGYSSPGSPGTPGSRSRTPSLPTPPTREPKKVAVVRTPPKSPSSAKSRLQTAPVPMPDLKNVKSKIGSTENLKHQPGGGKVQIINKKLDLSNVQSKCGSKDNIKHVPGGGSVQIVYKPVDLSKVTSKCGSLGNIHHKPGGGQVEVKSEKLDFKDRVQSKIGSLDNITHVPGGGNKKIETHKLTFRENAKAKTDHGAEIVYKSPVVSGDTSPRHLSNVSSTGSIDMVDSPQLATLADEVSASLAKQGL

[3] = molecular target: T1, recombinant α-syn fibrils (Homo sapiens, UniProt P37840); assay: Competition binding assay against [^3H]PiB, α-syn fibrils; details: for Selectivity Aβ/α-syn / Selectivity tau/α-syn: ratio of Ki, [^3H]PiB was used
T1 construct: made in house

[4] = molecular target: T1, recombinant α-syn fibrils; assay: Competition binding assay against [^3H]DCVJ, α-syn fibrils; details: ratio of Ki, [^3H]DCVJ was used
Procedure: The incubation of purified recombinant α-synuclein monomer (10 mg/mL) obtained as described by Uzuegbunam was carried out in PBS (pH 7.4) at 37 °C. The solution was left shaking at 900 rpm in an Eppendorf Thermomixer for up to 84 h. Determination of the concentration of the formed fibrils (α-syn) was carried out following the centrifugation of the reaction vial at 12,000× g for 5 min. The pellet obtained was washed thrice with 20 mM of Tris-HCl, pH 7.4. The supernatants from the three centrifugation steps were combined, and the concentration of the monomer in the resulting supernatant was determined in a BCA assay (Thermo Fisher Scientific, Waltham, MA, USA) (with a BSA standard curve). Determination of the concentration of α-syn was carried out by subtracting the amount of α-synuclein monomer in the supernatant from the initial amount used for fibrillation.
(§1) The pellets of the fibrils obtained above (Section 4.2.1) were resuspended in 20 mM of Tris-HCl, pH 7.4 and diluted as needed for the binding assays.
(§2) A fixed concentration of [^3H]DCVJ (10 nM) and α-synuclein aggregates (125 nM), prepared as described above (Section 4.2.3), was used with different final concentrations of the DABTAs from 0.01 to 100 nM (see SI Figure S1). The experiment was carried out in quintuplicate for each concentration. The mixture was incubated for 2 h in a final volume of 200 μL per well after dilution with 20 mM of Tris-HCl, pH 7.4. The incubated mixtures were filtered through a Perkin Elmer GF/B glass filter via a TOMTEC cell harvester and immediately washed thrice with 1 mL of deionized water. The filters containing the bound ligands were dried and afterwards mixed with 3 mL of BetaPlate Scint solution (Perkin Elmer Life Sciences, Waltham, MA, USA) and left there for 2 h before counting in a Wallac 1450 MicroBeta TriLux Liquid Scintillation Counter (PerkinElmer Life Sciences, Waltham, MA, USA). For the determination of the inhibition constants, data were analyzed using GraphPad Prism software (version 7.0) to obtain IC50 values by fitting the data to the equation Y = bottom + (top − bottom)/(1 + 10(x − log IC50)). Ki values were calculated from IC50 values using the equation Ki = IC50/(1 + [radioligand]/Kd). […] Further protocol was carried out as for [^3H]DCVJ (see SI Figure S3).

[5] = molecular target: T2, Aβ1−42 fibrils (Homo sapiens, UniProt P05067); assay: Competition binding assay against [^3H]PiB, Aβ1−42 fibrils; details: read-out: Ki Aβ
T2 construct: 1 mg of β-amyloid1–42 peptide (Abcam, Cambridge, UK); purchased Abcam
T2 sequence (P05067 672-713): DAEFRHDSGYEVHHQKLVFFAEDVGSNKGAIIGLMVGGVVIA
Procedure: After the dissolution of 1 mg of β-amyloid1–42 peptide (Abcam, Cambridge, UK) in 50 μL of DMSO, 925 μL of Milli-Q® water was added to it, and the mixture was stirred. Finally, 25 μL of 1M Tris HCl, pH 7.4 was added to bring the final peptide concentration to 1 mg/mL. The mixture was then left to incubate at 37 °C for 30 h with shaking at 900 rpm. To separate the non-aggregated monomers from the formed fibrils, the reaction mixture was centrifuged at 12,000× g for 5 min, and the resulting pellet was washed three times with 500 μL of 20 mM Tris-HCl, pH 7.4. The supernatants from the three centrifugation steps were combined, and the concentration of the monomer in the resulting supernatant was determined in a BCA assay (Thermo Fisher Scientific, Waltham, MA, USA) (with a BSA standard curve). Determination of the concentration of fibrils formed was carried out by subtracting the amount of β-amyloid1−42 peptide monomer in the supernatant from the initial amount used for fibrillation.
as §1, §2
Further procedures followed the same already described in Section 4.2.3.1 (See SI Figure S4).

[6] = set-up: method as in PMID 35572127; details: cited from earlier work
[7] = molecular target: tau fibrils (Homo sapiens, UniProt P10636); assay: Competition binding assay against [^3H]PiB, tau fibrils
tau fibrils, sequence (P10636 2-758): as the sequence (P10636 2-758) above
Procedure: as §2, with “Recombinant tau monomer (R&D systems, Minneapolis, MN, USA) was dissolved in 20 mM of Tris HCl, pH 8.0, 100 mM of NaCl, 25 μM of low-MW heparin, and 0.5 mM of dithiothreitol to a final concentration of 300 µg/mL. The mixture was incubated with shaking at 900 rpm at 37 °C for 48 h. To separate the non-aggregated monomers from the formed fibrils, the reaction mixture was centrifuged at 12,000× g for 5 min, and the resulting pellet was washed three times with 500 μL of 20 mM Tris-HCl, pH 7.4. The supernatants from the three centrifugation steps were combined, and the concentration of the monomer in the resulting supernatant was determined in a BCA assay(Thermo Fisher Scientific, Waltham, MA, USA) (with a BSA standard curve). Determination of the concentration of fibrils formed was carried out by subtracting the amount of tau peptide monomer in the supernatant from the initial amount used for fibrillation. The pellets of the fibrils obtained above (Section 4.2.1) were resuspended in 20 mM of Tris-HCl, pH 7.4 and diluted as needed for the binding assays. A fixed” for “A fixed”, “Figure S3). […] Further procedures followed the same already described in Section 4.2.3.1 (See SI Figure S4).” for “Figure S3).”

[8] = Solubility in the incubation medium of the binding assays; format: physicochemical; details: incubation buffer of the binding assays

| Ki [3] | Selectivity Aβ/α-syn [3] | Selectivity tau/α-syn [3] | Selectivity Aβ/α-syn [4] | Selectivity tau/α-syn [4] | Ki [5] | Ki [7] | Compound | Kd [1] | Kd [2] | brain uptake and washout [6] | solubility in the incubation medium [8] |
| --- | --- | --- | --- | --- | --- | --- | --- | --- | --- | --- | --- |
| – | – | – | – | – | – | – | [3H]C([3H])([3H])Nc1ccc(-c2nc3ccc(O)cc3s2)cc1 [[^3H]PiB] | 4.9 nM | 117 nM | – | – |
| 2.51 nM | 60.1 | 318.2 | 196.0 | 798.3 | 151 nM | 799 nM | Fc1ccc(-c2csc(-c3nc(-c4ccc5c(c4)OCO5)cs3)n2)cn1 [d6, 4-(Benzo[d][1,3]dioxol-5-yl)-4′-(6-fluoropyridin-3-yl)-2,2′-bithiazole] | – | – | excellent brain uptake and washout | – |
| 1.01 nM | 125.8 | >990.1 | 3863.0 | >10,000.0 | 127 nM | – | Fc1ccc(-c2csc(-c3nc(-c4cnc5c(c4)OCO5)cs3)n2)cn1 [d8, 6-(4′-(6-Fluoropyridin-3-yl)-[2,2′-bithiazol]-4-yl)-[1,3]dioxolo[4,5-b]pyridine] | – | – | excellent brain uptake and washout | – |
| 1.17 nM | – | – | – | – | – | – | ICCOCCOCCOc1cnc(-c2csc(-c3nc(-c4cnc5c(c4)OCO5)cs3)n2)nc1 [h13, 6-(4′-(5-(2-(2-(2-Iodoethoxy)ethoxy)ethoxy)pyrimidin-2-yl)-[2,2′-bithiazol]-4-yl)-[1,3]dioxolo[4,5-b]pyridine] | – | – | – | low solubility; also recorded: decreased solubility |
